Data: patent US6914049B2, “IGF-binding protein-derived peptide or small molecule” (Bioexpertise, LLC, priority 2001, dated 2005)
Where no end group is shown, it is not given here.

Assays:
[1] = system: MA-16C mammary adenocarcinoma tumors; assay: MA-16C mammary adenocarcinoma tumor implants; assay type: in vivo, female C3H mice; conditions: DOX study
Method: Fragments of MA-16C mammary adenocarcinoma tumors were implanted subcutaneously into female C3H mice (8-11 animals per group). The animals were treated with vehicle alone, IGFBP-3 (4 mg/kg/day for 21 days by subcutaneous injection), doxorubicin (2 mg/kg on days 1 and 8 by intravenous injection), or IGFBP-3 plus doxorubicin. A separate study was performed where the animals were treated with vehicle alone, 5-fluorouracil (10 mg/kg on days 1-5 by intraperitoneal injection), or IGFBP-3 plus 5-fluorouracil. Tumor size was measured at day 18, and the mice were sacrificed at day 21, and the implanted tumors were removed for determination of caspase-3 activity (a marker of apoptosis-only performed for DOX groups).

[2] = system: HEK293 cells; assay: Nuclear translocation of MBD-GFP32 after endocytosis inhibitors; assay type: cell-based, human; conditions: inhibitor 10 μg/ml one hour; 500 ng/ml MBD-GFP32, twenty minutes; FIG. 19
Method: HEK293 cells were pre-incubated with inhibitors nystatin (inhibitor of caveolin pathway) or chlorpromazine (inhibitor of clathrin pathway) for one hour at 10 μg/ml. […] Extracts were assayed by anti-GFP ELISA.

[3] = system: HEK 293 cells; assay: Co-apoptotic activity of MBD peptides and paclitaxel, caspase-3; assay type: cell-based, human; conditions: normalized to MBD2 = 100 on a molar basis; peptide 50 ng/ml, 0.3 ng/ml paclitaxel, 8 hours
Method: Peptides (50 ng/ml) were added to 80% confluent HEK 293 cells grown in DMEM supplemented with 0.3 ng/ml paclitaxel concurrent with peptide. Caspase-3 activity was measured in cell extracts 8 hours post-addition.
(§1) Apoptotic activity is expressed in arbitrary caspase-3 units normalized to MBD2 on a molar basis (MBD2 activity was defined as 100 units (avg. of 3 experiments); “nd” indicates “not done”; “ps” indicates phosphoserine. Metal-binding is expressed as a percentage of loaded peptide bound to a Ni-NTA resin; approximately 1-1.5 mg of peptide were loaded on the column. Cell uptake was determined using genetic fusions to GFP as described in Example 9.

[4] = Metal-binding of peptides to Ni-NTA resin; conditions: percentage of loaded peptide bound to Ni-NTA resin; 1-1.5 mg loaded
Method: as §1

[5] = Binding of short peptides to Ni-His-Bind column, imidazole elution
Method: We further tested the ability of IGFBP-3-derived sub-domains and peptides to bind metal. As shown in Example 5, below, a defined fragment of IGFBP-3 generated in vivo can be captured on IMAC. Two short peptides were passed through a Ni-His-Bind column:
Both peptides bound specifically to the column. Peptide 1 eluted with 60 mM imidazole, whereas higher concentrations of imidazole (1M) were necessary to elute Peptide 2.

[6] = system: HEK293 cells; assay: Caspase-3 apoptosis assay on nutritionally stressed HEK293 cells (Examples 1-2); assay type: cell-based, human
Method: Human embryonal kidney 293 (HEK293) cells were grown in Dulbecco's Modified Eagle Medium (D-MEM) supplemented with fetal calf serum at 2%, 4%, 6%, or 8%. When the cells reached 80-85% confluency (cell titer approximately 2.1×10^6 cells per plate), 5 μg of IGFBP-3 or buffer control was added to each plate. The cells were incubated at 37° C. overnight. The next day the medium was removed and the cells were rinsed with trypsin-EDTA (0.25% trypsin, 1 mM EDTA) plus 1× phosphate buffered saline. The cells were centrifuged and the supernatant was removed. ApoAlert caspase-3 assay kit from Clontech Inc (Palo Alto, Calif.) was used to measure apoptosis. The cells were resuspended in 50 μl of chilled cell lysis buffer and incubated on ice for 10 minutes. The resulting cell, lysates were centrifuged at 14000 rpm in a Beckman microcentrifuge for 3 minutes at 4 C. The supernatant was transferred to new tubes and 50 μl of 2× reaction buffer/DTT plus 5 μl of 1 mM caspase-3 substrate was added to each tube. After incubating at 37 C. for 1 hour in a water bath, the samples were read at 405 nm in a microplate reader.
Peptides derived from IGFBP-3 were tested for pro-apoptotic activity essentially as described in Example 1.
The peptides tested are described in Table 1 (peptides marked with an asterisk include a hexahistidine tag).

[7] = system: HEK293 cells; assay: Nuclear translocation of biotinylated peptide/streptavidin-HRP conjugate; assay type: cell-based, human; conditions: approx. 90 Kd conjugate, 20 minutes; FIG. 24
Method: Biotinylated MBD peptides MBD9, MBD20 ([…] (SEQ ID NO: 37): the MBD core 14mer is underlined, and the caveolin consensus binding sequence is bolded) or MBD21 ([…] (SEQ ID NO: 38): the MBD core 14mer is underlined, and the caveolin consensus binding sequence is bolded) were each mixed with streptavidin-horseradish peroxidase conjugate (3-6× molar excess of MBD peptide) and added to HEK293 cells. After 20 minutes, nuclear and cytoplasmic extracts were prepared as described in Example 20 and assayed for peroxidase activity.

[8] = system: MA16C cells; assay: Sensitization to low dose doxorubicin, caspase-3; assay type: cell-based; conditions: doxorubicin 75 ng/ml, FIG. 16A
Method: MA16C cells were cultured in the presence of MDB2 and a low dose of doxorubicin (75 ng/ml). Apoptosis was assayed using the caspase-3 assay as described in Example 1.

[9] = system: HEK 293 cells transfected with dominant negative inserts; assay: Co-apoptotic activity in cells with blocked signal transduction; assay type: cell-based, human; conditions: AktDN, PTEN, ILKdn, rafDN inserts; with paclitaxel; FIG. 15
Method: HEK 293 cells were transfected with pUSEamp, or pUSEamp carrying a Akt dominant negative (AktDN), PTEN, ILK dominant negative (ILKdn) or raf dominant negative (rafDN) insert (Upstate Biotechnologies). The cells were cultured as described in Example 10 (including paclitaxel), with or without MBD2.

[10] = system: HEK293 cells; assay: Co-apoptotic activity with paclitaxel in presence of plasma proteins; assay type: cell-based, human; conditions: 50 ng/ml, 0.3 ng/ml paclitaxel, eight hours
Method: Co-apoptotic activity of MBD peptides or IGFBP-3 with paclitaxel was tested in the presence or absence of two plasma proteins; fibronectin and fibrinogen. MBD peptides or IGFBP-3, (50 ng/ml), 0.3 ng/ml paclitaxel, and plasma proteins (200 ng/ml) were added to 80% confluent HEK293 cells grown in DMEM essentially as described in Example 8. Caspase-3 was measured after an eight hour incubation.
Apoptotic activity was calculated in arbitrary caspase-3 units normalized to MBD2 (MBD2 activity was defined as 100 units) Results are summarized in Table 4 (average of 3 experiments).

[11] = system: HEK 293 cells; assay: Integrin dependence of pro-apoptotic activity, caspase-3; assay type: cell-based, human; conditions: with paclitaxel; FIG. 12A
Method: HEK 293 cells were cultured as described in Example 10, including paclitaxel. Cells were incubated with MDB2 either alone or in combination with an anti-adhesion protein antibody. Antibodies were against integrin associated protein (LAP), fibronectin (Fn), transferrin receptor (TfnR), alpha 5 integrin, alpha 6 integrin, alpha v integrin, beta 1 integrin, and beta 5 integrin. Caspase-3 activity was assayed as described in Example 1.

[12] = system: MDA-MB-231 cells; assay: Sensitization to low dose paclitaxel, NMP levels; assay type: cell-based; conditions: paclitaxel 100 ng/ml, 50 ng/ml peptide, FIG. 16B
Method: MDA-MB-231 cells were cultured in the presence of low dose paclitaxel (100 ng/ml) with and without MDB2 (50 ng/ml). Apoptosis was assayed by measuring NMP levels.

[13] = system: HEK 293 cells; assay: IGF-independence of apoptosis stimulation, caspase-3; assay type: cell-based, human
Method: HEK 293 cells were cultured under stressed conditions (low serum or in the presence of paclitaxel) with and without IGFBP-3 (50 ng/ml) or MBD2 (50 ng/ml). Apoptosis was assayed using the caspase-3 assay as described in Example 1.

Compound: COc1cccc2c1C(=O)c1c(O)c3c(c(O)c1C2=O)C[C@@](O)(C(=O)CO)C[C@@H]3O[C@H]1C[C@H](N)[C@H](O)[C@H](C)O1 [DOX, doxorubicin, reference compound]
- Tumor Weight ([1]; IGFBP-3 4 mg/kg/day sc 21 days, doxorubicin 2 mg/kg iv days 1 and 8): 1966 + 677 mg
- Lung Metastases ([1]; animals with metastases/animals): 0/12
- Caspase-3 ([1]; tumors removed at day 21): 7.88 ± 6.27

Compound: CN(C)CCCN1c2ccccc2Sc2ccc(Cl)cc21 [chlorpromazine]
- effect on nuclear translocation of MBD peptides [2]: inhibit nuclear translocation of MBD peptides

Compound: C[C@@H]1[C@H](O)[C@@H](C)/C=C/C=C/CC/C=C/C=C/C=C/C=C/C(O[C@H]2O[C@H](C)[C@@H](O)[C@H](N)[C@@H]2O)CC2O[C@](O)(CC(O)C(O)CCC(O)CC(O)CC(O)CC(=O)O[C@H]1C)CC(O)C2C(=O)O (some centres unmarked) [nystatin]
- effect on nuclear translocation of MBD peptides [2]: inhibit nuclear translocation of MBD peptides

Compound: CRPSKGRKRGFC [MBD4]
- Apoptotic Activity [3]: 10-15 arbitrary caspase-3 units
- Metal-binding [4]: 92 percentage

Compound: CRPSKGRKRGFCW [MBD12]
- Apoptotic Activity [3]: 10-40 arbitrary caspase-3 units

Compound: DKKGFYKKKQCRPSKGRKRGFCW [MBD1]
- imidazole concentration that elutes the peptide [5]: 60 mM
- Apoptotic Activity [3]: 10-15 arbitrary caspase-3 units
- pro-apoptotic activity ([6]; FIG. 4A/4B): dramatic lowering of pro-apoptotic activity
- Metal-binding [4]: 22 percentage

Compound: GFYKKKQCRPSKGRKRGFCW [MBD5]
- Apoptotic Activity [3]: 10-15 arbitrary caspase-3 units
- Metal-binding [4]: 95 percentage

Compound: KKEKDIMKKTIQCRPSKGRKRGFCWNGR [MBD10]
- Apoptotic Activity [3]: 127 arbitrary caspase-3 units

Compound: KKGFYKKKQCRPSKGRKRGFCWAVDKYG (cysteine pairing not given here; also: biotinylated, position not given here) [MBD21, tested biotinylated with streptavidin-HRP]
- nuclear mobilization of streptavidin-HRP conjugate compared with MBD9 [7]: far more efficiently

Compound: KKGFYKKKQCRPSKGRKRGFCWNGRK [MBD9]
- Apoptotic Activity [3]: 149 arbitrary caspase-3 units
- Metal-binding [4]: 45 percentage

Compound: QCKMSLNGQRGECW [BP2n1s]
- Apoptotic Activity [3]: <5 arbitrary caspase-3 units

Compound: QCKPSRGRKRGICW [BP5n1s]
- Apoptotic Activity [3]: <5 arbitrary caspase-3 units
- Metal-binding [4]: 28 percentage

Compound: QCRPSEGGKRGFCW [MBD3]
- Apoptotic Activity [3]: <5 arbitrary caspase-3 units
- Metal-binding [4]: 100 percentage

Compound: QCRPSKGRKRGFC [MBD13]
- Apoptotic Activity [3]: 10-40 arbitrary caspase-3 units

Compound: QCRPSKGRKRGFCW [MBD2]
- binding to the column [5]: binds metal more tightly
- imidazole concentration necessary to elute the peptide [5]: 1 M
- Apoptotic Activity [3]: 100 arbitrary caspase-3 units
- pro-apoptotic activity relative to intact IGFBP-3 or a longer peptide ([6]; on a weight basis, FIG. 4B): 3-4 ×
- Metal-binding [4]: 66 percentage
- sensitization to doxorubicin [8]: sensitizes MA16C mammary adenocarcinoma cells to low doses of doxorubicin
- pro-apoptotic activity in cells with blocked pathways [9]: inhibited in cells in which the PI3K/ILK kinase signal transduction pathway is blocked, but not in cells where the MAPK signal transduction pathway is blocked
- co-apoptotic activity with Fibrinogen ([10]; Fibrinogen 200 ng/ml): 67.5 arbitrary caspase-3 units
- co-apoptotic activity with Fibronectin ([10]; Fibronectin 200 ng/ml): 98.3 arbitrary caspase-3 units
- co-apoptotic activity, plasma protein none ([10]; no plasma protein): 100.0 arbitrary caspase-3 units
- pro-apoptotic activity with anti-adhesion protein antibodies [11]: inhibited by antibodies against integrins and integrin-associated proteins
- sensitization to paclitaxel [12]: sensitizes MDA-MB-231 cells to low doses of paclitaxel
- IGF dependence of pro-apoptotic activity ([13]; 0.3 ng/ml paclitaxel, alone or with Y60L-IGF-I, FIG. 11C): independent of the presence of IGF
- pro-apoptotic activity under stressed conditions ([13]; low serum or paclitaxel, 50 ng/ml, FIGS. 11A, 11B): nearly identical

Compound: QCRPSKGRKRGFCWAVDKYG (cysteine pairing not given here; also: biotinylated, position not given here) [MBD20, tested biotinylated with streptavidin-HRP]
- nuclear mobilization of streptavidin-HRP conjugate compared with MBD9 [7]: far more efficiently

Compound: QCRPSKGRKRGFCWNGR [MBD7]
- Apoptotic Activity [3]: 89 arbitrary caspase-3 units
- Metal-binding [4]: 11 percentage
